Results reported in ChEMBL document CHEMBL1144049, “Functional assay and structure-activity relationships of new third-generation P-glycoprotein inhibitors” (Bioorg Med Chem, 2008).

Columns and labels:
[1] = molecular target: T1, ATP-dependent translocase ABCB1 (Homo sapiens, UniProt P08183); assay: Inhibition of human Pgp in A2780 cells after 30 mins by calcein AM assay; type: cell-based
[2] = molecular target: T1, ATP-dependent translocase ABCB1; assay: Inhibition of human Pgp in A2780 cells after 30 mins by Hoechst 33342 assay; type: cell-based
[3] = molecular target: T1, ATP-dependent translocase ABCB1
Description: Inhibition of Pgp by daunorubicin accumulation assay

[4] = molecular target: ATP-dependent translocase ABCB1 (Mus musculus, UniProt P06795); assay: Inhibition of mouse Pgp in EMT6/AR1.0 cells after 1 hr by daunorubicin accumulation assay; type: cell-based
ATP-dependent translocase ABCB1 (Mus musculus, UniProt P06795), sequence (P06795 whole entry): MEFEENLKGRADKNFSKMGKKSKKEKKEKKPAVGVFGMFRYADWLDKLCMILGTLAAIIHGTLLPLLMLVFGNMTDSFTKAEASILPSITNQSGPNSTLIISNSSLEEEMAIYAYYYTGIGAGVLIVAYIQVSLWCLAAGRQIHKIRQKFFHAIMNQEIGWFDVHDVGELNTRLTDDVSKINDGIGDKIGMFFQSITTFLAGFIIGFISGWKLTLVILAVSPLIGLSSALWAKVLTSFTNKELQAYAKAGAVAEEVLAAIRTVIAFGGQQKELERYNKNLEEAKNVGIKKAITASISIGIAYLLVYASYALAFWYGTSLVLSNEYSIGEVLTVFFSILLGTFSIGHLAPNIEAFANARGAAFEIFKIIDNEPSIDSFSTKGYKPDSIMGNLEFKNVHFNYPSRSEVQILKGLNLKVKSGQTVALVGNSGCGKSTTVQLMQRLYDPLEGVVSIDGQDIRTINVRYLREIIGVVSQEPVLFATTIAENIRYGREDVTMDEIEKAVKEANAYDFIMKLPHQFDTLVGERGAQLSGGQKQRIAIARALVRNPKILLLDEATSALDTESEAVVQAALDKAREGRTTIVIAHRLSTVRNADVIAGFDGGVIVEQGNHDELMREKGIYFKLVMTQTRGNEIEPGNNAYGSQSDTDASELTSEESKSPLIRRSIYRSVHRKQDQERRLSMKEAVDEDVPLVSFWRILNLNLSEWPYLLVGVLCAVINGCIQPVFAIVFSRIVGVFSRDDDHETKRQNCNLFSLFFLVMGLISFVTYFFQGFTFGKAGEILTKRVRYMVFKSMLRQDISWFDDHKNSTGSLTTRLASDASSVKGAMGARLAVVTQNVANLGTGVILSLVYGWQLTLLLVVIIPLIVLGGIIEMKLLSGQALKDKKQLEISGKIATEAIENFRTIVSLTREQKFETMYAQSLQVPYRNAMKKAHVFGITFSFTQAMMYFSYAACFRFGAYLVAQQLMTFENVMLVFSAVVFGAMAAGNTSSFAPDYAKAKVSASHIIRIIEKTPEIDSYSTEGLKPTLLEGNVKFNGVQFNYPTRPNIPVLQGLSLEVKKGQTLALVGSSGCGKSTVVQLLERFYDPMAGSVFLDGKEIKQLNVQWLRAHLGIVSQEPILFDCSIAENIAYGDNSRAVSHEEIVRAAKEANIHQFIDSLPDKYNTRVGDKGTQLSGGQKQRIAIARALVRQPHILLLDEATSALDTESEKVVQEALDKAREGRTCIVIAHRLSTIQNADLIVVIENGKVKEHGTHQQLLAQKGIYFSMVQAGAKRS

T1 sequence (P08183 whole entry): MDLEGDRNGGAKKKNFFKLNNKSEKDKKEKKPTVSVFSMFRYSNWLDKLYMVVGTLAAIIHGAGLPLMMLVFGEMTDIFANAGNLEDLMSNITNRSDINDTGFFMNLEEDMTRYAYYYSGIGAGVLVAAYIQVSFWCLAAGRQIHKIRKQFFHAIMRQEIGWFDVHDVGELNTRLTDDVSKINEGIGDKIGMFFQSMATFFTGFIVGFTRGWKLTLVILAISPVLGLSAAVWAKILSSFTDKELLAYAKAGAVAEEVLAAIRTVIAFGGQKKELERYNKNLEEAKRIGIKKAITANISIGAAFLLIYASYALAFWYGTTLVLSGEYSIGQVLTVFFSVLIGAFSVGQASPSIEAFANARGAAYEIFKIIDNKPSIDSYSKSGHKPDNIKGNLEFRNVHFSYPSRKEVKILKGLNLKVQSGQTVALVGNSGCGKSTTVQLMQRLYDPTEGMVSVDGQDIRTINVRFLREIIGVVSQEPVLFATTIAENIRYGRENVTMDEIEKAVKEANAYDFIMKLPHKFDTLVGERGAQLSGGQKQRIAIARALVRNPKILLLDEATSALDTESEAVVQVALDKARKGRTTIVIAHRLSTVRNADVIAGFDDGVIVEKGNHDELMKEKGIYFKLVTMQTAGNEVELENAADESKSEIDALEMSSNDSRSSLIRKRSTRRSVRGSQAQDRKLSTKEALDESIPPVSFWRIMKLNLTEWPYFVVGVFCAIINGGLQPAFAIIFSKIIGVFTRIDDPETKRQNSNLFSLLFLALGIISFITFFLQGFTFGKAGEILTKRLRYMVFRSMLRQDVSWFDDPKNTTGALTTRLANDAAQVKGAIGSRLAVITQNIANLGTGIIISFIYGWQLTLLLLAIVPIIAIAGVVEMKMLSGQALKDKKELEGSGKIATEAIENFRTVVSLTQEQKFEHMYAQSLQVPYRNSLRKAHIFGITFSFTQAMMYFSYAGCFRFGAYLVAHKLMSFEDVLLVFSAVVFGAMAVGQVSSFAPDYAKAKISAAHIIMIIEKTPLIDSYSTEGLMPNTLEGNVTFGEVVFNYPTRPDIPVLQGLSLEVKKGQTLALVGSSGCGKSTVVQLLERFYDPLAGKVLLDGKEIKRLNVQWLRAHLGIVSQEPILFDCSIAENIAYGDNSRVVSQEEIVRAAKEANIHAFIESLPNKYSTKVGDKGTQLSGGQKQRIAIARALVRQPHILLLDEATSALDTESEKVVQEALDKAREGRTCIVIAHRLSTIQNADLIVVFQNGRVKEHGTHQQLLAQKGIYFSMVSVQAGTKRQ

Structure (SMILES) | IC50 [1] [nM] | IC50 [2] [nM] | IC50 [3] [nM] | IC50 [4] [nM]
COc1cc2c(cc1OC)CN(CCc1ccc(NC(=O)c3cccc4ccccc34)cc1)CC2 | 1410 | 1860 | – | –
COc1cc2c(cc1OC)CN(CCc1ccc(NC(=O)c3ccccc3N)cc1)CC2 | 9120 | 11200 | – | –
COc1cc2c(cc1OC)CN(CCc1ccc(NC(=O)c3ccccc3NC(=O)c3ccccc3)cc1)CC2 | 724 | – | 250 | 300
O=C(Nc1ccc(CCN2CCc3ccccc3C2)cc1)c1ccc([N+](=O)[O-])cc1 | 4470 | 5010 | – | –
COc1cc2c(cc1OC)CN(CCc1ccc(NC(=O)c3ccc(N)cc3)cc1)CC2 | 4070 | 7080 | – | –
COc1cc2c(cc1OC)CN(CCc1ccc(NC(=O)c3ccccc3[N+](=O)[O-])cc1)CC2 | 4790 | 5500 | – | –
COc1cc2c(cc1OC)CN(CCc1ccc(NC(=O)c3ccc4ncccc4c3)cc1)CC2 | 724 | 741 | – | –
COc1cc2c(cc1OC)CN(CCc1ccc(NC(=O)c3ccnc4ccccc34)cc1)CC2 | 2820 | 2240 | – | –
COc1cc2c(cc1OC)CN(CCc1ccc(NC(=O)c3ccccc3NC(=O)c3cnc4ccccc4c3)cc1)CC2 | 240 | 166 | 87 | 50
O=C(Nc1ccc(CCN2CCc3ccccc3C2)cc1)c1ccccc1[N+](=O)[O-] | 12300 | 13500 | – | –
COc1cc2c(cc1OC)CN(CCc1ccc(NC(=O)c3ccc4ccccc4c3)cc1)CC2 | 776 | 776 | – | –
COc1cc2c(cc1OC)CN(CCc1ccc(NC(=O)c3cccnc3)cc1)CC2 | 4170 | 3160 | – | –
COc1cc2c(cc1OC)CN(CCc1ccc(NC(=O)c3ccccc3Br)cc1)CC2 | 4270 | 3470 | – | –
O=C(Nc1ccccc1C(=O)Nc1ccc(CCN2CCc3ccccc3C2)cc1)c1cnc2ccccc2c1 | 447 | – | – | 320
COc1cc2c(cc1OC)CN(CCc1ccc(NC(=O)c3cnc4ccccc4n3)cc1)CC2 | 490 | 209 | – | –
COc1cc2c(cc1OC)CN(CCc1ccc(NC(=O)c3cnc4ccccc4c3)cc1)CC2 | 646 | 145 | – | –
COc1cc2c(cc1OC)CN(CCc1ccc(NC(=O)c3cccc(Br)c3)cc1)CC2 | 2290 | 3240 | – | –
COc1cc2c(cc1OC)CN(CCc1ccc(NC(=O)c3cc(OC)c(OC)cc3NC(=O)c3cnc4ccccc4c3)cc1)CC2 | – | 126 | 38 | 64
COc1cc2c(cc1OC)CN(CCc1ccc(NC(=O)c3cc4ccccc4cn3)cc1)CC2 | 851 | 776 | – | –
COc1cc2c(cc1OC)CN(CCc1ccc(NC(=O)c3ccccc3NC(=O)c3ccc(C)cc3)cc1)CC2 | 692 | 525 | – | 260
Nc1ccc(C(=O)Nc2ccc(CCN3CCc4ccccc4C3)cc2)cc1 | 13500 | 4170 | – | –
COc1cc2c(cc1OC)CN(CCc1ccc(NC(=O)c3ccc([N+](=O)[O-])cc3)cc1)CC2 | 1100 | 1380 | – | –
